Where two headings read alike, the source gives them in different places.
Experiments:
[1] = system: panel of 62 GPCRs; test: DiscoverX neurological and psychiatric GPCR selectivity panel; assay type: cell-based; conditions: 10 μM
[2] = system: Wistar rats; test: Novel object recognition; assay type: in vivo, rat
Method: Male adult Wistar rats (Harlan, UK; approximately 11 weeks of age) were handled for two days prior to the experiment. […] Donepezil (0.1 mg/kg) and galanthamine (3 mg/kg) were administered via intraperitoneal injection (in saline) 60 min prior to training. Following a 10-min habituation period, each rat was placed into the test arena comprising an open-field arena in the presence of two identical plastic shapes and allowed to explore for 5 min. The rat was then returned to its home cage. After 24 hours, the rat was returned to the test arena in the presence of one familiar object, and one novel object. The time exploring each object was recorded using image analysis software (Ethovision XT, Noldus, UK).

[3] = system: Tg37 hemizygous mice inoculated with RML prions; assay type: in vivo, mouse; conditions: prion mice 9 w.p.i., 30 mg/kg i.p., 24 h after training
[4] = Human plasma and CSF pharmacokinetics after single oral dose; assay type: in vivo; conditions: single 54 mg oral dose
[5] = target: T1, M2-receptor (Homo sapiens, UniProt P08172); test: M2-receptor functional agonist assay; assay type: cell-based; design: expressed in transfected cells
T1 sequence (P08172 1-466): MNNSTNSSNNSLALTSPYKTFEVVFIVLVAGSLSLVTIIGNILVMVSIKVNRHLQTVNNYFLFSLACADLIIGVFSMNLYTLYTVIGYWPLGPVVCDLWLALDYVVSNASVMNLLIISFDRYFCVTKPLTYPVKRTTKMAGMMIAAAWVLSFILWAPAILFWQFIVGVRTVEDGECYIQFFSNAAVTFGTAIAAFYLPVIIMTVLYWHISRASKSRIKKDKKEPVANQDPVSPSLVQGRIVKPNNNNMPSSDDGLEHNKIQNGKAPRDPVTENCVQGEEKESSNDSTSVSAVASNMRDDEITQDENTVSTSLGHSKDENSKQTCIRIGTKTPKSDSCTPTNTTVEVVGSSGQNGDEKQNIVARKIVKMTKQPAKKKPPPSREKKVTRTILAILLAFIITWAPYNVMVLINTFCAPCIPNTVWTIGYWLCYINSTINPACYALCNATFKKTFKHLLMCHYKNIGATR
Method: Functional assays were performed using the Alphascreen Surefire phopho-ERK1/2 assay. […] Once adhered, cells were serum starved overnight. Agonist stimulation was performed by the addition of […] agonist to the cells for a pre-optimized 5 min period (37°C). Media was removed and 50 μl of lysis buffer added. After 15 min a 4 μl sample was transferred to a 384-well plate and 7 μl of detection mixture added.

With `CCOC(=O)N1CCC[C@H](N2CCC(C(=O)NC3(C)CCC3)CC2)CC1` [HTL9936, ethyl (S)-4-(4-((1-methylcyclobutyl)carbamoyl)piperidin-1-yl)azepane-1-carboxylate] the “Agonism at other receptors” value [1] was < 25%, the Effective dose ([2]; rat novel object recognition, p.o.) was 10 mg/kg and the “Effect compared with positive controls donepezil and galantamine” value ([2]; rat, 10 mg/kg p.o.) was “significantly better than the positive controls”. The “Immobility level on re-exposure to training environment” value [3] was ~ 34%, the Tmax ([4]; CSF, read-out: Time of maximum concentration in CSF) was 2 to 3 h and the Tmax ([4]; plasma, read-out: Plasma tmax) was ~0.5 h. The EC50 [5] was > 20 µM and the M2-receptor agonist activity [5] was “no detectable agonism”.

— paper PMC7616177, “From structure to clinic: Design of a muscarinic M1 receptor agonist with the potential to treat Alzheimer’s disease” (Cell, 2021)
